The source of these data is patent US11541132B2, “Radiolabeled compounds” (Hoffmann-La Roche Inc., priority 2017, dated 2023).

Like-named read-outs stand apart in the source and are kept apart here.

The target of experiment [1] is T1, native aSyn aggregates in A30P transgenic mouse brain sections (Homo sapiens, UniProt P37840, A30P).
T1 construct: from tissue; host or cells: brain sections (midbrain and pons as ROI) of A30P transgenic mice, line B6.D2-Tg(Thy1-SNCA*30P)31Pjk
Nature of the experiment: aSyn in vitro displacement assay ([3H]Example-3 autoradiography). Type of experiment: binding, mutant human aSyn gene). The note with it: for inhibition at 1 µM: read-out: PCT_INHIB A30P @ 1 μM (% displacement of [3H]Example-3). (In general: In a radioligand displacement assay an active substance lowers the binding of a labelled ligand.)

Experiment [2] deals with T2, native Aβ aggregates in human AD brain tissue sections (Homo sapiens, UniProt P05067).
T2 construct: native Aβ aggregates in human AD brain tissue samples; from tissue; host or cells: human AD brain tissue sections
The experiment can be described thus: Aβ in vitro displacement assay (selectivity counterscreen, [3H]Example 3 autoradiography). The note with it: for inhibition at 1 µM: read-out: sel. counterscreen PCT_INHIB AD @ 1 μM (% displacement of [3H]Example 3). In kind it is binding.

[3] abbreviates: 1 μM compound, 3 nM [3H]Example-3, A30P transgenic mouse brain sections.
Where [4] appears, read: 1 μM compound, 3 nM [3H]Example 3, human AD brain sections.

T2 sequence (P05067 672-713 limits assumed): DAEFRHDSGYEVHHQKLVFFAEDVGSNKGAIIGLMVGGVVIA

On to `Cc1ccc(C(=O)Nc2cnc(N3CCN(c4ccccn4)CC3)cn2)nc1` [Example 90, 5-Methyl-N-(5-(4-(pyridin-2-yl)piperazin-1-yl)pyrazin-2-yl)picolinamide], for which the inhibition at 1 µM in experiment [1] (setting [3]) came out at 85%; in experiment [2] (setting [4]), 74%.
The matching figures for `O=C(Nc1ccc(N2CCN(c3ccccn3)CC2)cc1)c1ccc(OCF)cc1` [Example 135, 4-(fluoromethoxy)-N-[4-(4-pyridin-2-ylpiperazin-1-yl)phenyl]benzamide]: 97% and 98%.
The like results for `O=C(Nc1ccc(N2CCN(c3cccnc3)CC2)cc1)c1ccc(O)cc1` [Example 138, 4-Hydroxy-N-[4-(4-pyridin-3-ylpiperazin-1-yl)phenyl]benzamide] were, in that order, 82% and 89%.
The matching figures for `O=C(Nc1cnc(N2CCN(c3ccccn3)CC2)nc1)c1ccccc1F` [Example 61, 2-Fluoro-N-(2-(4-(pyridin-2-yl)piperazin-1-yl)pyrimidin-5-yl)benzamide]: 86% and 93%.
For the molecule `Cc1ccc(C(=O)Nc2ccc(N3CCN(c4ccccn4)CC3)nc2)nc1` [Example 33, 5-Methyl-N-[6-[4-(2-pyridyl)piperazin-1-yl]-3-pyridyl]pyridine-2-carboxamide], the inhibition at 1 µM in experiment [1] (setting [3]) came out at 85%; in experiment [2] (setting [4]) it was 90%.
In the case of `COc1ccc(C(=O)Nc2ccc(N3CCN(c4ccc(C#N)cn4)CC3)cc2)cc1C` [Example 170, N-(4-(4-(5-Cyanopyridin-2-yl)piperazin-1-yl)phenyl)-4-methoxy-3-methylbenzamide], the inhibition at 1 µM in experiment [1] (setting [3]) is 86%; in experiment [2] (setting [4]) it was 82%.
For `COc1ccc(C(=O)Nc2ccc(N3CCN(c4ncccc4F)CC3)cc2)cc1` [Example 148, N-(4-(4-(3-Fluoropyridin-2-yl)piperazin-1-yl)phenyl)-4-methoxybenzamide], the inhibition at 1 µM in experiment [1] (setting [3]) was found to be 86%; in experiment [2] (setting [4]), 89%.
On to `C#Cc1ccc(N2CCN(c3ccc(NC(=O)c4ccc(OC)cc4)cc3)CC2)nc1` [Example 176, N-[4-[4-(5-Ethynyl-2-pyridyl)piperazin-1-yl]phenyl]-4-methoxy-benzamide], for which the inhibition at 3 µM was found to be 102% in experiment [1] (3 μM compound, 3 nM [3H]Example-3, A30P transgenic mouse brain sections, read-out: PCT_INHIB A30P @ 3 μM) and 97% in experiment [2] (3 μM compound, 3 nM [3H]Example 3, human AD brain sections, read-out: sel. counterscreen PCT_INHIB AD @ 3 μM).
With `CC(C)(C)[Si](C)(C)OC(CF)COc1ccc(C(=O)Nc2ccc(N3CCN(c4ccccn4)CC3)cc2)cc1` (racemic) [Example 124, rac-4-(2-((tert-Butyldimethylsilyl)oxy)-3-fluoropropoxy)-N-(4-(4-(pyridin-2-yl)piperazin-1-yl)phenyl)benzamide], the inhibition at 1 µM came to 82% in experiment [1] and 91% in experiment [2].
In the case of `Cc1cccc(N2CCN(c3ccc(NC(=O)c4ccc(N(C)C)cc4)cc3)CC2)n1` [Example 30, 4-(Dimethylamino)-N-(4-(4-(6-methylpyridin-2-yl)piperazin-1-yl)phenyl)benzamide], the inhibition at 1 µM in experiment [1] (setting [3]) stood at 91%; in experiment [2] (setting [4]), 96%.
In the case of `COc1ccc(C(=O)Nc2ccc(N3CCN(c4ccc(C#N)c(C)c4)CC3)cc2)cc1` [Example 153, N-(4-(4-(4-Cyano-3-methylphenyl)piperazin-1-yl)phenyl)-4-methoxybenzamide], the inhibition at 1 µM is 92% in experiment [1] (setting [3]) and 87% in experiment [2] (setting [4]).
The matching figures for `Cc1ccc(C(=O)Nc2cnc(N3CCN(c4ccccn4)CC3)nc2)cc1` [Example 74, 4-Methyl-N-(2-(4-(pyridin-2-yl)piperazin-1-yl)pyrimidin-5-yl)benzamide]: 93% and 95%.
On to `N#Cc1ccc(N2CCN(c3ncc(NC(=O)c4ccc(N5CCOCC5)cc4)cn3)CC2)nc1` [Example 99, N-(2-(4-(5-Cyanopyridin-2-yl)piperazin-1-yl)pyrimidin-5-yl)-4-morpholinobenzamide], for which the inhibition at 1 µM in experiment [1] (setting [3]) is 82%; in experiment [2] (setting [4]), 86%.
For the molecule `COc1ccc(C(=O)Nc2ccc(N3CCN(c4ccc(S(C)(=O)=O)cc4)CC3)cc2)cc1` [Example 111, 4-Methoxy-N-[4-[4-(4-methylsulfonylphenyl)piperazin-1-yl]phenyl]benzamide], the inhibition at 1 µM turned out to be 94% in experiment [1] (setting [3]) and 92% in experiment [2] (setting [4]).
On to `COc1ccc(C(=O)Nc2ccc(N3CCN(c4cccc(F)c4)CC3)cc2)cc1` [Example 104, N-[4-[4-(3-Fluorophenyl)piperazin-1-yl]phenyl]-4-methoxy-benzamide], for which the values for the inhibition at 1 µM in experiment [1] (setting [3]) and in experiment [2] (setting [4]) were 98% and 100%, respectively.
For the molecule `Cc1ccc(C(=O)Nc2ccc(N3CCN(c4nccs4)CC3)cc2)c(F)c1` [Example 21, 2-Fluoro-4-methyl-N-[4-[4-(1,3-thiazol-2-yl)piperazin-1-yl]phenyl]benzamide], the inhibition at 1 µM in experiment [1] (setting [3]) turned out to be 85%; in experiment [2] (setting [4]), 91%.
Turning to `COc1ccc(C(=O)Nc2cnc(N3CCN(c4ccccn4)CC3)cn2)cc1` [Example 85, 4-Methoxy-N-(5-(4-(pyridin-2-yl)piperazin-1-yl)pyrazin-2-yl)benzamide], the values for the inhibition at 1 µM in experiment [1] (setting [3]) and in experiment [2] (setting [4]) were 98% and 107%, respectively.
With `COc1ccc(C(=O)Nc2ccc(N3CCN(c4ccccc4)CC3)cc2)cc1` [Example 101, 4-Methoxy-N-[4-(4-phenylpiperazin-1-yl)phenyl]benzamide], the figures for the inhibition at 1 µM in experiment [1] (setting [3]) and in experiment [2] (setting [4]) were 95% and 99%, respectively.
`CN1CCN(c2ccc(C(=O)Nc3ccc(N4CCN(c5ccccn5)CC4)cc3)cc2)CC1` [Example 6, 4-(4-Methylpiperazin-1-yl)-N-(4-(4-(pyridin-2-yl)piperazin-1-yl)phenyl)benzamide]: the inhibition at 1 µM amounted to 83% in experiment [1] (setting [3]) and 95% in experiment [2] (setting [4]).
Turning to `O=C(Nc1ccc(N2CCN(c3ccccn3)CC2)cc1)c1ccc(OCCOCCF)cc1` [Example 12, 4-(2-(2-fluoroethoxy)ethoxy)-N-(4-(4-(pyridin-2-yl)piperazin-1-yl)phenyl) benzamide], the inhibition at 1 µM in experiment [1] (setting [3]) and in experiment [2] (setting [4]) was 99% in each case.
For the molecule `COc1ccc(C(=O)Nc2ccc(N3CCN(c4ccccn4)CC3)cn2)c(F)c1` [Example 44, 2-Fluoro-4-methoxy-N-(5-(4-(pyridin-2-yl)piperazin-1-yl)pyridin-2-yl)benzamide], the inhibition at 1 µM in experiment [1] (setting [3]) turned out to be 95%; in experiment [2] (setting [4]) it was 94%.
On to `COc1ccc(C(=O)Nc2ccc(N3CCN(c4cc(C#N)ccn4)CC3)cc2)cc1` [Example 65, N-[4-[4-(4-Cyano-2-pyridyl)piperazin-1-yl]phenyl]-4-methoxy-benzamide], for which the values for the inhibition at 1 µM in experiment [1] (setting [3]) and in experiment [2] (setting [4]) were 100% and 99%, respectively.
With `Cc1ccc(C(=O)Nc2ccc(N3CCN(c4nccs4)CC3)cc2)cc1` [Example 27, 4-Methyl-N-[4-[4-(1,3-thiazol-2-yl)piperazin-1-yl]phenyl]benzamide], the inhibition at 1 µM in experiment [1] (setting [3]) was determined as 89%.
As for `O=C(Nc1ccc(N2CCN(c3cccnc3)CC2)cc1)c1ccc(OCF)cc1` [Example 134, 4-(fluoromethoxy)-N-(4-(4-(pyridin-3-yl)piperazin-1-yl)phenyl)benzamide], the values for the inhibition at 1 µM in experiment [1] (setting [3]) and in experiment [2] (setting [4]) were 94% and 93%, respectively.
For the molecule `COc1ccc(C(=O)Nc2ccc(N3CCN(c4cc(Cl)ccn4)CC3)cc2)cc1` [Example 149, N-(4-(4-(4-Chloropyridin-2-yl)piperazin-1-yl)phenyl)-4-methoxybenzamide], the results for the inhibition at 1 µM in experiment [1] (setting [3]) and in experiment [2] (setting [4]) were 93% and 91%, respectively.
In the case of `CN1CCN(c2ccc(C(=O)Nc3ccc(N4CCN(c5nccs5)CC4)cc3)cc2)CC1` [Example 28, 4-(4-Methylpiperazin-1-yl)-N-[4-[4-(1,3-thiazol-2-yl)piperazin-1-yl]phenyl]benzamide], the inhibition at 1 µM in experiment [1] (setting [3]) came out at 82%.
As for `Cc1ccc(C(=O)Nc2ccc(N3CCN(c4nccs4)CC3)cc2)nc1` [Example 25, 5-Methyl-N-[4-[4-(1,3-thiazol-2-yl)piperazin-1-yl]phenyl]pyridine-2-carboxamide], the inhibition at 1 µM in experiment [1] (setting [3]) amounted to 83%.
The same measure, in the same setting: with `COc1ccc(C(=O)Nc2ccc(N3CCN(c4ccccn4)CC3)nc2)cc1` [Example 24, 4-Methoxy-N-[6-[4-(2-pyridyl)piperazin-1-yl]-3-pyridyl]benzamide] the figure was 94%.
The same measure, in the same setting: to `Cc1ccc(C(=O)Nc2ccc(N3CCN(c4ccccn4)CC3)nc2)c(F)c1` [Example 23, 2-Fluoro-4-methyl-N-[6-[4-(2-pyridyl)piperazin-1-yl]-3-pyridyl]benzamide] belongs 82%; to `CN1CCN(c2ccc(C(=O)Nc3ccc(N4CCN(c5ccccn5)CC4)nc3)cc2)CC1` [Example 22, 4-(4-Methylpiperazin-1-yl)-N-[6-[4-(2-pyridyl)piperazin-1-yl]-3-pyridyl]benzamide], 84%; to `COc1ccc(C(=O)Nc2ccc(N3CCN(c4ccccn4)CC3)nc2)c(C)c1` [Example 19, 4-Methoxy-2-methyl-N-[6-[4-(2-pyridyl)piperazin-1-yl]-3-pyridyl]benzamide], 81%.
For the molecule `O=C(Nc1ccc(N2CCN(c3nccs3)CC2)cc1)c1ccc(N2CCOCC2)cc1` [Example 26, 4-Morpholin-4-yl-N-[4-[4-(1,3-thiazol-2-yl)piperazin-1-yl]phenyl]benzamide], the inhibition at 1 µM in experiment [1] (setting [3]) is 93%.
